Results on 6 compounds are retold here after patent US20030166601A1, “Novel colloid synthetic vectors for gene therapy” (priority 1999, published 2003).

The experiment has as its system CD-1 mice. Description: Luciferase expression in organs after intravenous injection of pCILuc complexes. In kind it is in vivo. As to conditions: for Luciferase RLU/20 μl lysate heart / Luciferase RLU/20 μl lysate kidney / Luciferase RLU/20 μl lysate liver / Luciferase RLU/20 μl lysate lung / Luciferase RLU/20 μl lysate spleen: 40 μg pCILuc i.v., 5 h; for Luciferase activity heart / Luciferase activity kidney / Luciferase activity liver / Luciferase activity lung / Luciferase activity spleen: Table 5. The protocol:
Substituted aminoethanols (cationic compounds) were prepared as described in Examples 1-34. Their gene delivery ability was studied in vivo by intravenous injection (Table 1 and 2) using a standard method. The preparations were administered via tail vein injection to mice and gene expression determined after 5 hours. Female CD-1 mice, 13-15 g, were purchased from Charles River Inc. Forty microgram of pCILuc complexed with GC lipids or GC lipid:Chol dispersion as indicated weight ratios. After 5 h, mice were sacrificed and organs were collected. Organs were homogenized in 0.5 ml of lysis buffer and 20 μl of supernatant was used for luciferase assay. Luciferase activity was represented as a mean of relative light unit (RLU) of four mice. The lipids were either used alone or combined with cholesterol and complexed with a luciferase reporter gene plasmid by a standard procedure at a range of weight and charge ratios. For the in vivo screen, 40 μg of pCILuc was complexed with the formulation and injected into the mice.
All compounds were evaluated for in vivo activity. Two critical factors were examined, formulation with or without cholesterol and the ratio of cationic lipid to DNA. Cholesterol was tested at 1:1 mole ratio of lipid:chol. The studies were performed with a dose of 40 μg of pCILuc complexed with cationic lipid or lipid: Chol (1:1 mole ratio) injected i.v. into CD-1 mice and then luciferase activity in different organs determined 5 h later. The first evaluation included all of 14 GC-lipids at weight ratios of 2 and 10 (GC lipid to DNA). It was performed by four separated experiments. Each time cationic liposome DOTAP:Chol was used as a standard control.
Measurements were repeated with lipids GC-030, GC-034 and GC-029 at wider weight ratios than the first experiment. Luciferase activity is represented as a mean of relative light unit (RLU) of four mice. WR means weight ratio of GC lipids to DNA. The transfection activity was represented by luciferase activity RLU/organ. […] The transfection activity increased with the increased weight ratio (GC lipids to DNA). Inclusion of cholesterol can change the biodistribution of gene expression in the different organs examined. […] However this function of cholesterol was not seen with GC-034.

`CCCCCCCCCCCCCCCCCC(CCCCCCCCCCCCCCCCC)OC(=O)NCCNC(=O)[C@H](CCCNCCCN)NCCCN.O=C(O)C(F)(F)F.O=C(O)C(F)(F)F.O=C(O)C(F)(F)F.O=C(O)C(F)(F)F` [GC-029]: where the note is “WR 2”, the “Luciferase RLU/20 μl lysate heart” value turned out to be 42 RLU/20 μl lysate, the Luciferase activity heart is 933 RLU/organ, the “Luciferase RLU/20 μl lysate kidney” value was 34 RLU/20 μl lysate and the Luciferase activity kidney was 1,000 RLU/organ. For the same compound, where the note is “WR 2”, the “Luciferase RLU/20 μl lysate liver” value amounted to 31 RLU/20 μl lysate, the Luciferase activity liver was 825 RLU/organ, the “Luciferase RLU/20 μl lysate lung” value is 41 RLU/20 μl lysate and the Luciferase activity lung was 967 RLU/organ. Moreover, where the note is “WR 2, spleen”, the Luciferase activity spleen is recorded as 908 RLU/organ. For the setting “WR 10”, the “Luciferase RLU/20 μl lysate heart” value is reported as 34 RLU/20 μl lysate, the Luciferase activity heart is 858 RLU/organ, the “Luciferase RLU/20 μl lysate kidney” value stood at 42 RLU/20 μl lysate and the Luciferase activity kidney was found to be 808 RLU/organ. Also, for the setting “WR 10”, the “Luciferase RLU/20 μl lysate liver” value was found to be 65 RLU/20 μl lysate, the Luciferase activity liver is listed as 1,408 RLU/organ, the “Luciferase RLU/20 μl lysate lung” value was found to be 72 RLU/20 μl lysate and the Luciferase activity lung is recorded as 1,017 RLU/organ. Also, where the note is “WR 10, spleen”, the “Luciferase RLU/20 μl lysate spleen” value was 196 RLU/20 μl lysate and the Luciferase activity spleen was 1,992 RLU/organ. Besides, where the note is “WR (lipid to DNA) 2, spleen”, the “Luciferase RLU/20 μl lysate spleen” value turned out to be 31 RLU/20 μl lysate.
For the compound `CCCCCCCCCCCCCCCCCC(CCCCCCCCCCCCCCCCC)OC(=O)NCCNC(=O)[C@@H](N)CCCN.O=C(O)C(F)(F)F.O=C(O)C(F)(F)F` [GC-030], the Luciferase activity heart is, setting by setting: (WR 1) 1,675 RLU/organ; (WR 2) 1,367 RLU/organ; (WR 6) 817 RLU/organ; (WR 10) 3,450 RLU/organ; (WR 20) 4,783 RLU/organ. The Luciferase activity kidney (WR 1) is listed as 1,392 RLU/organ; the Luciferase activity kidney (WR 2) is recorded as 1,458 RLU/organ; the Luciferase activity kidney (WR 6) was found to be 792 RLU/organ; the Luciferase activity kidney (WR 10) was 1,367 RLU/organ; the Luciferase activity kidney (WR 20) was 17,583 RLU/organ. The Luciferase activity liver is given as 3,642 RLU/organ (WR 1); 3,417 RLU/organ (WR 2); 1,550 RLU/organ (WR 6); 114,425 RLU/organ (WR 10); 1,003,125 RLU/organ (WR 20). Moreover, the Luciferase activity lung reads like this: (WR 1) 3,308 RLU/organ; (WR 2) 1,600 RLU/organ; (WR 6) 8,808 RLU/organ; (WR 10) 35,117 RLU/organ; (WR 20) 689,475 RLU/organ. Further, the Luciferase activity spleen is 23,308 RLU/organ (WR 1, spleen); 73,442 RLU/organ (WR 2, spleen); 38,058 RLU/organ (WR 6, spleen); 446,650 RLU/organ (WR 10, spleen); 2,479,217 RLU/organ (WR 20, spleen). Besides, the “Luciferase RLU/20 μl lysate heart” value came to 48 RLU/20 μl lysate (WR 2) and 67 RLU/20 μl lysate (WR 10). For the same compound, the “Luciferase RLU/20 μl lysate kidney” value was determined as 51 RLU/20 μl lysate (WR 2) and 105 RLU/20 μl lysate (WR 10). The “Luciferase RLU/20 μl lysate liver” value (WR 2) is 70 RLU/20 μl lysate and the “Luciferase RLU/20 μl lysate liver” value (WR 10) is 1,093 RLU/20 μl lysate. In addition, the “Luciferase RLU/20 μl lysate lung” value reads like this: (WR 2) 88 RLU/20 μl lysate; (WR 10) 1,396 RLU/20 μl lysate. Moreover, the “Luciferase RLU/20 μl lysate spleen” value (WR 10, spleen) is reported as 5,305 RLU/20 μl lysate and the “Luciferase RLU/20 μl lysate spleen” value (WR (lipid to DNA) 2, spleen) is 3,692 RLU/20 μl lysate. Where the note is “weight ratio 20, spleen”, the “luciferase activity in spleen relative to DOTAP:Chol standard” value stood at 36 fold.
In the case of `CCCCCCCCCCCCCCCCCCN(CCCCCCCCCCCCCCCCCC)C(=O)CC[C@H](NC(=O)[C@H](CCCNCCCN)NCCCN)C(=O)O.O=C(O)C(F)(F)F.O=C(O)C(F)(F)F.O=C(O)C(F)(F)F.O=C(O)C(F)(F)F` [GC-033], under “WR 2”, the “Luciferase RLU/20 μl lysate heart” value was found to be 31 RLU/20 μl lysate, the “Luciferase RLU/20 μl lysate kidney” value stood at 27 RLU/20 μl lysate, the “Luciferase RLU/20 μl lysate liver” value was found to be 29 RLU/20 μl lysate and the “Luciferase RLU/20 μl lysate lung” value is recorded as 36 RLU/20 μl lysate. In addition, where the note is “WR 10”, the “Luciferase RLU/20 μl lysate heart” value was 40 RLU/20 μl lysate, the “Luciferase RLU/20 μl lysate kidney” value was found to be 41 RLU/20 μl lysate, the “Luciferase RLU/20 μl lysate liver” value turned out to be 46 RLU/20 μl lysate and the “Luciferase RLU/20 μl lysate lung” value came to 42 RLU/20 μl lysate. For the same compound, the “Luciferase RLU/20 μl lysate spleen” value (WR 10, spleen) was 50 RLU/20 μl lysate. Further, the “Luciferase RLU/20 μl lysate spleen” value (WR (lipid to DNA) 2, spleen) is recorded as 27 RLU/20 μl lysate.
As to `CCCCCCCCCCCCCCCCCCN(CCCCCCCCCCCCCCCCCC)C(=O)CNC(=O)[C@@H](N)CCCN.O=C(O)C(F)(F)F.O=C(O)C(F)(F)F` [GC-035], where the note is “WR 2”, the “Luciferase RLU/20 μl lysate heart” value is reported as 54 RLU/20 μl lysate, the “Luciferase RLU/20 μl lysate kidney” value worked out at 46 RLU/20 μl lysate, the “Luciferase RLU/20 μl lysate liver” value stood at 57 RLU/20 μl lysate and the “Luciferase RLU/20 μl lysate lung” value was determined as 57 RLU/20 μl lysate. Also, for the setting “WR 10”, the “Luciferase RLU/20 μl lysate heart” value was found to be 51 RLU/20 μl lysate, the “Luciferase RLU/20 μl lysate kidney” value amounted to 54 RLU/20 μl lysate, the “Luciferase RLU/20 μl lysate liver” value was 50 RLU/20 μl lysate and the “Luciferase RLU/20 μl lysate lung” value was 54 RLU/20 μl lysate. In addition, the “Luciferase RLU/20 μl lysate spleen” value (WR 10, spleen) is recorded as 54 RLU/20 μl lysate. In addition, the “Luciferase RLU/20 μl lysate spleen” value (WR (lipid to DNA) 2, spleen) turned out to be 70 RLU/20 μl lysate.
For `CCCCCCCCCCCCCCCCCC(CCCCCCCCCCCCCCCCC)NC(=O)CNC(=O)CNC(=O)[C@H](CCCNCCCN)NCCCN.O=C(O)C(F)(F)F.O=C(O)C(F)(F)F.O=C(O)C(F)(F)F.O=C(O)C(F)(F)F` [GC-038], where the note is “WR 2”, the “Luciferase RLU/20 μl lysate heart” value stood at 101 RLU/20 μl lysate, the “Luciferase RLU/20 μl lysate kidney” value stood at 60 RLU/20 μl lysate, the “Luciferase RLU/20 μl lysate liver” value is listed as 59 RLU/20 μl lysate and the “Luciferase RLU/20 μl lysate lung” value is recorded as 142 RLU/20 μl lysate. Under “WR 10”, the “Luciferase RLU/20 μl lysate heart” value is 57 RLU/20 μl lysate, the “Luciferase RLU/20 μl lysate kidney” value turned out to be 58 RLU/20 μl lysate, the “Luciferase RLU/20 μl lysate liver” value was 93 RLU/20 μl lysate and the “Luciferase RLU/20 μl lysate lung” value is on record as 63 RLU/20 μl lysate. Also, the “Luciferase RLU/20 μl lysate spleen” value (WR 10, spleen) amounted to 160 RLU/20 μl lysate. In addition, the “Luciferase RLU/20 μl lysate spleen” value (WR (lipid to DNA) 2, spleen) is recorded as 61 RLU/20 μl lysate.
Consider `CCCCCCCCCCCCCCCCCC(CCCCCCCCCCCCCCCCC)NC(=O)CNC(=O)CNC(=O)[C@@H](N)CCCN.O=C(O)C(F)(F)F.O=C(O)C(F)(F)F` [GC-039], for which, for the setting “WR 2”, the “Luciferase RLU/20 μl lysate heart” value is 50 RLU/20 μl lysate, the “Luciferase RLU/20 μl lysate kidney” value came to 45 RLU/20 μl lysate, the “Luciferase RLU/20 μl lysate liver” value stood at 48 RLU/20 μl lysate and the “Luciferase RLU/20 μl lysate lung” value worked out at 52 RLU/20 μl lysate. Where the note is “WR 10”, the “Luciferase RLU/20 μl lysate heart” value is reported as 45 RLU/20 μl lysate, the “Luciferase RLU/20 μl lysate kidney” value is 54 RLU/20 μl lysate, the “Luciferase RLU/20 μl lysate liver” value turned out to be 212 RLU/20 μl lysate and the “Luciferase RLU/20 μl lysate lung” value is 753 RLU/20 μl lysate. Further, the “Luciferase RLU/20 μl lysate spleen” value (WR 10, spleen) turned out to be 845 RLU/20 μl lysate. For the setting “WR (lipid to DNA) 2, spleen”, the “Luciferase RLU/20 μl lysate spleen” value was found to be 288 RLU/20 μl lysate.
